Data published in patent publication US20240207288A1, “METHODS OF TREATING ESOPHAGEAL STRICTURES” (Ellodi Pharmaceuticals, L.P., priority 2021, published 2024).

System: subjects with strictures and/or rings and EoE
Experiment: Clinical trial of FP ODT: endoscopy (EREFS, strictures, rings)
Type: in vivo, human
Conditions: for Stricture and Grade 2 Rings at Week 12, % / Stricture at Week 12, % / Stricture or Grade 2 Rings at Week 12, % / Subjects with new strictures and/or rings at Week 12, % / Endoscopy Responder Rate (overall EFEFS score ≤4), %: subgroup with strictures and/or Grade 2 rings at baseline; for Endoscopy Responder Rate (overall EFEFS score ≤4), %: Week 12
Description: In some embodiments, the strictures and/or rings are diagnosed using EoE Endoscopic Reference Score (EREFS), which measures edema (e.g., decreased vascularity or pallot), rings present, exudates (e.g., white plaques), furrows, and/or stricture in the esophagus according to Table 1. In embodiments, the patient also has a grade 2 or grade 3 ring.
In some embodiments, the methods of the present disclosure cause an improvement in a patient's EoE Endoscopic Reference score (EREFS). The EREFS identifies the severity of five endoscopic findings: edema, rings, exudates, furrows, and strictures. The EREFS classification system rates the severity of each of the endoscopic findings. The severity of edema is rated on a scale from 0 to 2. The severity of rings is rated from 0 to 3. The severity of exudates is rated from 0 to 2. The severity of furrows is rated from 0 to 2. The severity of strictures is rated from 0 to 1. The absence of a finding corresponds to a score of 0. The presence of a finding corresponds to a score of 1, 2, or 3. A higher score is correlated with higher severity. In some embodiments, the composite EREFS score, or the sum of the individual scores, is utilized to indicate the severity of EoE. In some embodiments, the inflammatory EREFS score, or the sum of the individual edeme, exudate, and furrows score, is utilized to indicate the severity of EoE. In some embodiments, a higher inflammatory or composite EREFS score corresponds to the severity of EoE. In some embodiments, the inflammatory or composite EREFS score decreases after treatment with a corticosteroid according to the methods of the disclosure. In some embodiments the inflammatory or composite EREFS score decreases by 0.1, or about 0.2, or about 0.3, or about 0.4, or about 0.5, or about 0.6, or about 0.7, or about 0.8, or about 0.9, or about 1.0, or about 1.1, or about 1.2, or about 1.3, or about 1.4, or about 1.5, or about 1.6, or about 1.7, or about 1.8, or about 1.9, or about 2.0, or about 2.1, or about 2.2, or about 2.3, or about 2.4, or about 2.5, or about 2.6, or about 2.7, or about 2.8, or about 2.9, or about 3.0, or about 3.1, or about 3.2, or about 3.3, or about 3.4, or about 3.5, or about 3.6, or about 3.7, or about 3.8, or about 3.9, or about 4.0, or about 4.1, or about 4.2, or about 4.3, or about 4.4, or about 4.5, or about 4.6, or about 4.7, or about 4.8, or about 4.9, or about 5.0, or about 5.1, or about 5.2, or about 5.3, or about 5.4, or about 5.5, or about 5.6, or about 5.7, or about 5.8, or about 5.9, or about 6.0, or about 6.1, or about 6.2, or about 6.3, or about 6.4, or about 6.5, or about 6.6, or about 6.7, or about 6.8, or about 6.9, or about 7.0, or about 7.1, or about 7.2, or about 7.3, or about 7.4, or about 7.5, or about 7.6, or about 7.7, or about 7.8, or about 7.9, or about 8.0, or about 8.1, or about 8.2, or about 8.3, or about 8.4, or about 8.5, or about 8.6, or about 8.7, or about 8.8, or about 8.9, or about 9.0, or about 9.1, or about 9.2, or about 9.3, or about 9.4, or about 9.5, or about 9.6, or about 9.7, or about 9.8, or about 9.9, or about 10.0 points, or more, inclusive of all ranges between these values. In some embodiments, the EREFS score decreases by 1%, or 5%, or 10%, or 15%, or 20%, or 25%, or 30%, or 35%, or 40%, or 45%, or 50%, or 55%, or 60%, or 65%, or 70%, or 75%, or 80%, or 85%, or 90%, or 95% or more, inclusive of all ranges between these values. The following article, incorporated by reference in its entirety herein, describes the EREFS score: Wechsler, Clin Hepatol. 2018 July; 16(7): 1056-1063.
A clinical trial was performed to evaluate the effect of an orally disintegrating tablet (“ODT”) comprising fluticasone propionate (FP). A randomised, double-blind, placebo-controlled, multicentre, dose-ranging, and maintenance study of FP in subjects (>18 and <75 years of age) with strictures and/or rings and EoE. […]

[1] = all FP dosing groups, TOTAL (n = 43)

Q: With “S-(fluoromethyl)-6α,9-difluoro-11β, 17-dihydroxy-16α-methyl-3-oxoandrosta-1, 4-diene-17β-carbothioate, 17-propanoate [FP]” as the substance, how does the “Stricture and Grade 2 Rings at Week 12, %” value (FP 1.5 mg BID (n = 12)) read?
A: The value was 0%.

Q: And the “Stricture at Week 12, %” value (FP 1.5 mg BID (n = 12))?
A: Its value is 42%.

Q: And the “Stricture or Grade 2 Rings at Week 12, %” value (FP 1.5 mg BID (n = 12))?
A: Its value is 50%.

Q: And the “Subjects with new strictures and/or rings at Week 12, %” value (“Subjects … %” for short) (FP 1.5 mg BID (n = 12))?
A: The value was 0%.

Q: And the “Endoscopy Responder Rate (overall EFEFS score ≤4), %” value (shortened to “Endoscopy Responder Rate … %”) (FP 1.5 mg BID (n = 12))?
A: The value was 92%.

Q: And the “Stricture and Grade 2 Rings at Week 12, %” value (FP 1.5 mg HS (n = 13))?
A: Its value is 0%.

Q: What about the “Stricture at Week 12, %” value (FP 1.5 mg HS (n = 13)) of the same substance?
A: Its value is 8%.

Q: And the “Stricture or Grade 2 Rings at Week 12, %” value (FP 1.5 mg HS (n = 13))?
A: Its value is 15%.

Q: What about the “Subjects … %” value (FP 1.5 mg HS (n = 13)) of the same substance?
A: The value was 0%.

Q: What about the “Endoscopy Responder Rate … %” value (FP 1.5 mg HS (n = 13)) of the same substance?
A: Its value is 77%.

Q: And the “Stricture and Grade 2 Rings at Week 12, %” value (FP 3 mg BID (n = 7))?
A: Its value is 0%.

Q: What about the “Stricture at Week 12, %” value (FP 3 mg BID (n = 7)) of the same substance?
A: The value was 29%.

Q: And the “Stricture or Grade 2 Rings at Week 12, %” value (FP 3 mg BID (n = 7))?
A: The value was 29%.

Q: What about the “Subjects … %” value (FP 3 mg BID (n = 7)) of the same substance?
A: Its value is 0%.

Q: What about the “Endoscopy Responder Rate … %” value (FP 3 mg BID (n = 7)) of the same substance?
A: Its value is 86%.

Q: And the “Stricture and Grade 2 Rings at Week 12, %” value (FP 3 mg HS (n = 11))?
A: Its value is 0%.

Q: What about the “Stricture at Week 12, %” value (FP 3 mg HS (n = 11)) of the same substance?
A: Its value is 9%.

Q: And the “Stricture or Grade 2 Rings at Week 12, %” value (FP 3 mg HS (n = 11))?
A: Its value is 18%.

Q: What about the “Subjects … %” value (FP 3 mg HS (n = 11)) of the same substance?
A: Its value is 0%.

Q: And the “Endoscopy Responder Rate … %” value (FP 3 mg HS (n = 11))?
A: The value was 100%.

Q: What about the “Stricture and Grade 2 Rings at Week 12, %” value [1] of the same substance?
A: The value was 0%.

Q: And the “Stricture at Week 12, %” value [1]?
A: The value was 21%.

Q: What about the “Stricture or Grade 2 Rings at Week 12, %” value [1] of the same substance?
A: The value was 28%.

Q: What about the “Subjects … %” value [1] of the same substance?
A: Its value is 0%.

Q: What about the “Endoscopy Responder Rate … %” value [1] of the same substance?
A: Its value is 88%.

Q: And the “Grade 2 Rings at Week 12, %” value (all FP dosing groups, subjects with stricture/rings at baseline)?
A: The value was 7%.

Q: And the “Effect on strictures and/or grade 2 esophageal rings (post-hoc analysis)” value (patients with strictures and/or grade 2 esophageal rings at baseline, particularly the 3-mg HS dosing group)?
A: Its value is “improvement or resolution of these features in most patients”.
